Reference: patent US20050089524A1, “Compositions and compounds for use as molecular adjuvant for a nicotine vaccine” (priority 2002, published 2005)
Square brackets hold non-standard residues; d marks the D form. Ends that are not written are not given here. Peptide text beside a SMILES is read from it.

Columns and labels:
[1] = tested on: human PMNs; assay: MPO release from human PMNs; format: cell-based; settings: for EC50: concentration resulting in 50% maximum release of myeloperoxidase; for pD2 ± SE: −log EC50 (M), mean ± SE, n 3
Experimental: (§1) Pharmacologic assays. […] Statistical analysis of the values obtained from pharmacologic assays was performed using one-way analysis of variance (ANOVA).

[2] = tested on: 51Cr-labeled P815S (HBsAg transfectant) target cells; assay: HBsAg-specific CTL response of immunized mice (51Cr-release assay); format: in vivo, BALB/c mice; settings: for antigen-specific CTL response: three s.c. injections of 50 μg at 21 day intervals, no added adjuvant; for % Specific Lysis: s.c. in PBS, boost day 21, spleen cells day 42
[3] = tested on: human umbilical artery; assay: Smooth muscle contraction of human umbilical artery; format: cell-based; settings: for EC50: concentration resulting in 50% maximum contraction; for pD2 ± SE: −log EC50 (M), mean ± SE, n 3
Experimental: as §1

[4] = molecular target: T1, C5aR (Homo sapiens, UniProt P21730); assay: Binding affinity for C5aRs on human PMNs (125I-C5a competition)
T1 construct: endogenous in cells; host or cells: intact human PMNs (polymorphonuclear leukocytes)
T1 sequence (P21730 1-350): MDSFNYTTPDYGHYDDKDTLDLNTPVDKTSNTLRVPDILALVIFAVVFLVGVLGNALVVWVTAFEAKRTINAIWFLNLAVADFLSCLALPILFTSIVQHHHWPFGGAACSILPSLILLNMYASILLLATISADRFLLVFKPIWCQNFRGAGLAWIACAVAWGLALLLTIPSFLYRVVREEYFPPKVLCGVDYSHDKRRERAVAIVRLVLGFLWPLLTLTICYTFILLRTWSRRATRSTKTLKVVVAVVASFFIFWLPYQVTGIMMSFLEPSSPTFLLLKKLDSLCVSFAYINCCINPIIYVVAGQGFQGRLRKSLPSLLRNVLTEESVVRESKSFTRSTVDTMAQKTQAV
Experimental: Pharmacologic assays. C5a-like agonistic activity was assessed by the ability of the peptides to induce smooth muscle contraction of human umbilical artery and […] from human PMNs according to previously published methods (Sanderson et al., 1994, supra; Sanderson et al., J. Med. Chem. 38, 3669, 1995; Finch et al., J. Med. Chem. 40, 877, 1997). Full concentration-response curves were generated for individual peptides and natural C5a in each assay and the EC50 values (the concentration of peptide producing 50% of the maximal response to each peptide) were calculated. pD2 transforms [−log EC50 (M)] were calculated for each concentration-response curve and reported as the mean±SE. Peptide binding affinity to the C5aR was evaluated on intact human PMNs by a competition assay using ^125I-C5a according to previously described methods (Sanderson et al., 1995, supra; Finch et al., 1997, supra). Statistical analysis of the values obtained from pharmacologic assays was performed using one-way analysis of variance (ANOVA).

[5] = tested on: MUC1 peptide; assay: MUC1-specific antibody isotype titers in immunized mice (ELISA); format: in vivo; settings: for MUC1 specific Ab titer, IgA / MUC1 specific Ab titer, IgG1 / MUC1 specific Ab titer, IgG2a / MUC1 specific Ab titer, IgG2b / MUC1 specific Ab titer, IgG3 / MUC1 specific Ab titer, IgM: five C57BL6 mice, mean titer of responders, sera screened against MUC1 peptide
[6] = tested on: MUC1 epitope peptide; assay: Serum antibody response to MUC1 epitope in immunized mice (RIA); format: in vivo; settings: C57Bl6 and Balb/c mice, 100 μg i.p. with RIBI adjuvant, three immunizations, sera at 6 weeks
Source text: iii. Animal Models. The strains of mice used for this example were inbred females 6 to 12 week old C57Bl6(H-2^b) and Balb/c (H-2^d), which were obtained from Jackson labs (Bar Harbor, Me.). […] The MUC1 peptide selected for these studies contained a motif that may bind to the H-2K^b molecule of the C57Bl6 mice; therefore, a strain of mouse that lacked this class I molecule binding motif (Balb/c) was also studied to determine the relative contribution of the class I binding motif to the antigen presentation properties of these peptides.
iv. Immunization protocol. Preimmune sera were obtained from mice, which were subsequently immunized intraperitoneally with 100 μg of the indicated peptide with RIBI adjuvant (MPL+TDM+CWS) (Sigma Immunochemicals). Animals were boosted twice at two week intervals using the same injection procedure. Sera were obtained following three immunizations (at 6 weeks).
v. Analysis of serum antibody responses. For radioimmunoassay (RIA), anti-peptide antibodies were determined, before and at different time points after immunization, in 96-well microtiter plates (Dynatech Laboratories, Inc.). Plates were coated with 50 μl of a 100 μg/ml appropriate peptide in phosphate-buffered saline (PBS) pH 7.4 solution overnight at 4° C. The wells were blocked by incubation with 5% dry milk in PBS pH 7.4 for at least two hours. Anti-peptide antibody titers were determined using serial dilutions of sera. The sera were diluted with PBS containing 0.05% Tween-20, pH 7.4 (washing buffer) and 50 μl of each dilution was incubated at 37° C. for 1 hour. The wells were then drained, washed 4 times with PBS-Tween and 50 μl of ^125I-goat anti-mouse Ab (1-2×10^4 cpm/well) was added and incubated for 1 hr at 25° C. After washing, specific radioactivity was recorded in a gamma counter (1272 CliniGamma, LKB).
vi. Experimental groups. […]

| Compound | EC50 [1] [µM] | pD2 ± SE [1] | EC50 [3] [µM] | pD2 ± SE [3] | EC50 [4] [µM] | IC50 [4] [µM] | % Specific Lysis ([2]; Effector:Target Ratio 6.25:1) [%] | % Specific Lysis ([2]; Effector:Target Ratio 12.5:1) [%] | % Specific Lysis ([2]; Effector:Target Ratio 25:1) [%] | % Specific Lysis ([2]; Effector:Target Ratio 50:1) [%] | antibody response to MUC1 epitope (RIA) [6] | further results |
| --- | --- | --- | --- | --- | --- | --- | --- | --- | --- | --- | --- | --- |
| CC[C@H](C)[C@H](N)C(=O)N1CCC[C@H]1C(=O)N[C@@H](CCC(N)=O)C(=O)N[C@@H](CO)C(=O)N[C@@H](CC(C)C)C(=O)N[C@@H](CC(=O)O)C(=O)N[C@@H](CO)C(=O)N[C@@H](Cc1c[nH]c2ccccc12)C(=O)N[C@@H](Cc1c[nH]c2ccccc12)C(=O)N[C@H](C(=O)N[C@@H](CO)C(=O)N[C@@H](CC(C)C)C(=O)N[C@@H](CCCNC(=N)N)C(=O)N[C@H](C(=O)N[C@@H](CCCNC(=N)N)C(=O)N[C@@H](CCCNC(=N)N)C(=O)N[C@@H](Cc1ccc(O)cc1)C(=O)N[C@@H](CO)C(=O)N[C@@H](Cc1ccccc1)C(=O)N[C@@H](CCCCN)C(=O)N1CCC[C@H]1C(=O)N[C@@H](CCSC)C(=O)N1CCC[C@H]1C(=O)N[C@@H](CC(C)C)C(=O)N[C@H](C)C(=O)N[C@@H](CCCNC(=N)N)C(=O)O)C(C)C)[C@@H](C)O (H-IPQSLDSWWTSLRVRRYSFKPMPL[dA]R-OH; N-terminus assumed) | 2.15 | 5.61 ± 0.19 | 0.18 | 6.67 ± 0.22 | 0.529 | 0.525 |  |  |  |  |  | antigen-specific CTL response [2]: able to elicit a specific CTL response that was significantly above background levels |
| IPQSLDSWWTSLRR |  |  |  |  |  |  | 0 | 1 | 2 | 2 |  |  |
| YKQGGFLGLYSFKPMPLaR [peptide 3] |  |  |  |  |  |  |  |  |  |  | substantial responses were produced | MUC1 specific Ab titer, IgA [5]: 0; MUC1 specific Ab titer, IgG1 [5]: 0; MUC1 specific Ab titer, IgG2a [5]: 1260; MUC1 specific Ab titer, IgG2b [5]: 1780 (5/5); MUC1 specific Ab titer, IgG3 [5]: 0 (5/5); MUC1 specific Ab titer, IgM [5]: 6310 (5/5); isotypes of the anti-peptide antibodies produced ([5]; immunized mice, FIG. 3): IgM, IgG2a, and IgG2b; specificity of the antibody response for the MUC1 epitope ([5]; immunized mice, FIG. 4): includes a high percentage of antibodies that are specific for the MUC1 epitope |
| YSFKPMPLaRKQGGFLGL [peptide 4] |  |  |  |  |  |  |  |  |  |  | immune responses were not produced |  |
| YKQGGFLGL-KLH: MUC1 epitope conjugated to keyhole limpet hemocyanine (KLH) (also: conjugated to KLH) [reference compound] |  |  |  |  |  |  |  |  |  |  |  | MUC1 specific Ab titer, IgA [5]: 0; MUC1 specific Ab titer, IgG1 [5]: 100 (2/5); MUC1 specific Ab titer, IgG2a [5]: 0; MUC1 specific Ab titer, IgG2b [5]: 0; MUC1 specific Ab titer, IgG3 [5]: 0; MUC1 specific Ab titer, IgM [5]: 5010 (4/5) |
| YKQGGFLGL [peptide 1] |  |  |  |  |  |  |  |  |  |  | no appreciable increase in antibody response |  |
| CC[C@H](C)[C@H](N)C(=O)N1CCC[C@H]1C(=O)N[C@@H](CCC(N)=O)C(=O)N[C@@H](CO)C(=O)N[C@@H](CC(C)C)C(=O)N[C@@H](CC(=O)O)C(=O)N[C@@H](CO)C(=O)N[C@@H](Cc1c[nH]c2ccccc12)C(=O)N[C@@H](Cc1c[nH]c2ccccc12)C(=O)N[C@H](C(=O)N[C@@H](CO)C(=O)N[C@@H](CC(C)C)C(=O)N[C@@H](Cc1ccc(O)cc1)C(=O)N[C@@H](CO)C(=O)N[C@@H](Cc1ccccc1)C(=O)N[C@@H](CCCCN)C(=O)N1CCC[C@H]1C(=O)N[C@@H](CCSC)C(=O)N1CCC[C@H]1C(=O)N[C@@H](CC(C)C)C(=O)N[C@H](C)C(=O)N[C@@H](CCCNC(=N)N)C(=O)O)[C@@H](C)O (H-IPQSLDSWWTSLYSFKPMPL[dA]R-OH; N-terminus assumed) | 1.58 | 5.80 ± 0.04 | 0.21 | 6.68 ± 0.17 | 3.69 | 3.72 | 1 | 2 | 4 | 6 |  | antigen-specific CTL response [2]: lack of a CTL response |
| IPQSLDSWWTSL [free L^d MHC class I-restricted HBsAg peptide S28-39] |  |  |  |  |  |  | 3 | 3 | 5 | 7 |  |  |
| CC[C@H](C)[C@H](NC(=O)[C@H](CCCNC(=N)N)NC(=O)[C@H](CCCNC(=N)N)NC(=O)[C@H](CCCNC(=N)N)NC(=O)[C@@H](C)NC(=O)[C@H](CC(C)C)NC(=O)[C@@H]1CCCN1C(=O)[C@H](CCSC)NC(=O)[C@@H]1CCCN1C(=O)[C@H](CCCCN)NC(=O)[C@H](Cc1ccccc1)NC(=O)[C@H](CO)NC(=O)[C@@H](N)Cc1ccc(O)cc1)C(=O)N1CCC[C@H]1C(=O)N[C@@H](CCC(N)=O)C(=O)N[C@@H](CO)C(=O)N[C@@H](CC(C)C)C(=O)N[C@@H](CC(=O)O)C(=O)N[C@@H](CO)C(=O)N[C@@H](Cc1c[nH]c2ccccc12)C(=O)N[C@@H](Cc1c[nH]c2ccccc12)C(=O)N[C@H](C(=O)N[C@@H](CO)C(=O)N[C@@H](CC(C)C)C(=O)O)[C@@H](C)O (H-YSFKPMPL[dA]RRRIPQSLDSWWTSL-OH; N-terminus and C-terminus assumed) | > 1000 | >3 | 39.4 | 4.41 ± 0.06 | 465 | 468 |  |  |  |  |  |  |
| CC[C@H](C)[C@H](N)C(=O)N1CCC[C@H]1C(=O)N[C@@H](CCC(N)=O)C(=O)N[C@@H](CO)C(=O)N[C@@H](CC(C)C)C(=O)N[C@@H](CC(=O)O)C(=O)N[C@@H](CO)C(=O)N[C@@H](Cc1c[nH]c2ccccc12)C(=O)N[C@@H](Cc1c[nH]c2ccccc12)C(=O)N[C@H](C(=O)N[C@@H](CO)C(=O)N[C@@H](CC(C)C)C(=O)N[C@@H](CCCNC(=N)N)C(=O)N[C@@H](CCCNC(=N)N)C(=O)N[C@@H](Cc1ccc(O)cc1)C(=O)N[C@@H](CO)C(=O)N[C@@H](Cc1ccccc1)C(=O)N[C@@H](CCCCN)C(=O)N1CCC[C@H]1C(=O)N[C@@H](CCSC)C(=O)N1CCC[C@H]1C(=O)N[C@@H](CC(C)C)C(=O)N[C@H](C)C(=O)N[C@@H](CCCNC(=N)N)C(=O)NCC(=O)O)[C@@H](C)O (H-IPQSLDSWWTSLRRYSFKPMPL[dA]RG-OH; N-terminus and C-terminus assumed) | 2.56 | 5.59 ± 0.28 | 6.78 | 5.17 ± 0.13 | 17 | 17 |  |  |  |  |  |  |
